Key:
[1] = Stability of tiopronin in Beagle dog urine; assay type: in vitro ADME
From the text: Samples were considered stable if their concentrations were within ±20% of nominal. These samples met acceptable criteria for stability and results are presented below, in Tables 5, 6, and 7, showing the % tiopronin remaining in Beagle dog plasma (Table 5), plasma supernatant (Table 6), and urine (Table 7).
Samples were considered stable if their concentrations were within ±20% of nominal. These samples met acceptable criteria for stability and results are presented below, in Tables 12, 13, and 14, showing the % tiopronin remaining in Beagle dog plasma (Table 12), plasma supernatant (Table 13), and urine (Table 14).

[2] = test system: cystinuria patients; conditions: cited from earlier work
[3] = Stability of tiopronin in Beagle dog plasma supernatant (pre-crashed plasma); assay type: in vitro ADME
Procedure: (§1) Stability Testing: Finally, short term and long term stability of tiopronin in beagle dog plasma, pre-crashed plasma (plasma supernatant), and urine were assessed using two tiopronin concentrations (50 ng/mL or 500 ng/mL) under each of the following two conditions: (1) storage on the bench top for 4 hours and (2) frozen at −80° C. for up to one month. Samples were considered stable if their concentrations were within ±20% of nominal. These samples met acceptable criteria for stability and results are presented below, in Tables 5, 6, and 7, showing the % tiopronin remaining in Beagle dog plasma (Table 5), plasma supernatant (Table 6), and urine (Table 7).
as §1, with “12, 13,” for “5, 6,”, “14,” for “7,”, “12),” for “5),”, “13),” for “6),”, “14).” for “7).”

[4] = Stability of tiopronin in Beagle dog plasma; assay type: in vitro ADME
Procedure: as §1
as §1, with “12, 13,” for “5, 6,”, “14,” for “7,”, “12),” for “5),”, “13),” for “6),”, “14).” for “7).”

[5] = 50 ng/mL (low), bench top (RT) for 4 hours
[6] = 50 ng/mL (low), −80° C. freezer for 1 week
[7] = 500 ng/mL (high), bench top (RT) for 4 hours
[8] = 500 ng/mL (high), −80° C. freezer for 1 week

SMILES: CC(S)C(=O)NCC(=O)O (stereo not drawn) [tiopronin, alpha-mercaptopropionylglycine]
- % Tiopronin Remaining in Beagle Dog Urine ([1]; High (2500 ng/mL), bench top (RT) for 4 hours): 84.9%
- % Tiopronin Remaining in Beagle Dog Urine ([1]; High (2500 ng/mL), −80° C. freezer for 1 week): 107%
- % Tiopronin Remaining in Beagle Dog Urine ([1]; High (2500 ng/mL), −80° C. freezer for 2 week): 90.9%
- % Tiopronin Remaining in Beagle Dog Urine ([1]; High (2500 ng/mL), −80° C. freezer for 4 week): 96.6%
- % Tiopronin Remaining in Beagle Dog Urine ([1]; Low (250 ng/mL), bench top (RT) for 4 hours): 113%
- % Tiopronin Remaining in Beagle Dog Urine ([1]; Low (250 ng/mL), −80° C. freezer for 1 week): 106%
- % Tiopronin Remaining in Beagle Dog Urine ([1]; Low (250 ng/mL), −80° C. freezer for 2 week): 119%
- % Tiopronin Remaining in Beagle Dog Urine ([1]; Low (250 ng/mL), −80° C. freezer for 4 week): 112%
- cases/patients in which the drug is discontinued ([2]; due to adverse reactions, need for frequent dosing, poor efficacy (Pak et al., 1986)): about 30%
- cystinuria patients in whom medication fails (continue forming stones) ([2]; human, in vivo): 85%
- % Tiopronin Remaining in Beagle Dog Plasma Supernatant [3, 5]: 113%
- % Tiopronin Remaining in Beagle Dog Plasma Supernatant [3, 6]: 118%
- % Tiopronin Remaining in Beagle Dog Plasma Supernatant ([3]; 50 ng/mL (low), −80° C. freezer for 2 week): 105%
- % Tiopronin Remaining in Beagle Dog Plasma Supernatant ([3]; 50 ng/mL (low), −80° C. freezer for 4 week): 113%
- % Tiopronin Remaining in Beagle Dog Plasma Supernatant [3, 7]: 105%
- % Tiopronin Remaining in Beagle Dog Plasma Supernatant [3, 8]: 112%
- % Tiopronin Remaining in Beagle Dog Plasma Supernatant ([3]; 500 ng/mL (high), −80° C. freezer for 2 week): 105%
- % Tiopronin Remaining in Beagle Dog Plasma Supernatant ([3]; 500 ng/mL (high), −80° C. freezer for 4 week): 116%
- % Tiopronin Remaining in Beagle Dog Plasma [4, 5]: 109%
- % Tiopronin Remaining in Beagle Dog Plasma [4, 6]: 110%
- % Tiopronin Remaining in Beagle Dog Plasma ([4]; 50 ng/mL (low), −80° C. freezer for 2 weeks): 112%
- % Tiopronin Remaining in Beagle Dog Plasma ([4]; 50 ng/mL (low), −80° C. freezer for 4 weeks): 95.6%
- % Tiopronin Remaining in Beagle Dog Plasma [4, 7]: 87.0%
- % Tiopronin Remaining in Beagle Dog Plasma [4, 8]: 95.4%
- % Tiopronin Remaining in Beagle Dog Plasma ([4]; 500 ng/mL (high), −80° C. freezer for 2 weeks): 92.8%
- % Tiopronin Remaining in Beagle Dog Plasma ([4]; 500 ng/mL (high), −80° C. freezer for 4 weeks): 90.4%

— patent publication US12472160B2, “Modified-release tiopronin compositions, kits and methods for treating cystinuria and related disorders” (ALTIBIO, INC., priority 2017, dated 2025)
